For the assay, the system named is 324938-238-R-J1-PDC complex spheroid viability. Kind of assay: Anticancer human tumor 324938-238-R-J1-PDC patient-derived bladder carcinoma cell line growth inhibition. Conditions: for viability, T/C: stronger effect = lower value. The gist of the method: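 Drug combinations with the LSD1 inhibitor iadademstat tested on tumor cells co-cultured as spheroids with endothelial cells and mesenchymal stem cells. Concentrations descended in half-log increments from clinical Cmax or 10 microM.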

The mark [1] stands for this setting: curve of first compound, second compound 0.1 µM.
The mark [2] stands for this setting: curve of first compound, second compound 0.316 µM.
[3] abbreviates: curve of first compound, second compound 1 µM.
Setting [4] is: curve of first compound, second compound 3.16 µM.
Setting [5] is: curve of first compound, second compound 10 µM.
Setting [6] is: second compound 0.1 µM, first compound 0.00949 µM.
Setting [7] is: second compound 0.1 µM, first compound 0.03 µM.
The mark [8] stands for this setting: second compound 0.1 µM, first compound 0.0949 µM.
Setting [9] is: second compound 0.1 µM, first compound 0.3 µM.
Setting [10] is: second compound 0.1 µM, first compound 0.949 µM.
[11] abbreviates: second compound 0.1 µM, first compound 3 µM.
Where [12] appears, read: second compound 0.316 µM, first compound 0.00949 µM.
Where [13] appears, read: second compound 0.316 µM, first compound 0.03 µM.
The mark [14] stands for this setting: second compound 0.316 µM, first compound 0.0949 µM.
Setting [15] is: second compound 0.316 µM, first compound 0.3 µM.
Where [16] appears, read: second compound 0.316 µM, first compound 0.949 µM.
The mark [17] stands for this setting: second compound 0.316 µM, first compound 3 µM.
Setting [18] is: second compound 1 µM, first compound 0.00949 µM.
Where [19] appears, read: second compound 1 µM, first compound 0.03 µM.
The mark [20] stands for this setting: second compound 1 µM, first compound 0.0949 µM.
Setting [21] is: second compound 1 µM, first compound 0.3 µM.
The mark [22] stands for this setting: second compound 1 µM, first compound 0.949 µM.
The mark [23] stands for this setting: second compound 1 µM, first compound 3 µM.
[24] abbreviates: second compound 3.16 µM, first compound 0.00949 µM.
Setting [25] is: second compound 3.16 µM, first compound 0.03 µM.
[26] abbreviates: second compound 3.16 µM, first compound 0.0949 µM.
Setting [27] is: second compound 3.16 µM, first compound 0.3 µM.
The mark [28] stands for this setting: second compound 3.16 µM, first compound 0.949 µM.
[29] abbreviates: second compound 3.16 µM, first compound 3 µM.
Setting [30] is: second compound 10 µM, first compound 0.00949 µM.
[31] abbreviates: second compound 10 µM, first compound 0.03 µM.
Setting [32] is: second compound 10 µM, first compound 0.0949 µM.
Setting [33] is: second compound 10 µM, first compound 0.3 µM.
Where [34] appears, read: second compound 10 µM, first compound 0.949 µM.
The mark [35] stands for this setting: second compound 10 µM, first compound 3 µM.

Structures are written as SMILES. Where “and” joins values, the source holds several entries; their conditions need not be identical. Equal entries are not always repeated.
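Further: spheroids also contain HUVEC and human MSCs and agents combined with iadademstat; spheroids exposed to agents for 7 days before readout.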

In the case of `CCN(c1cc(-c2ccc(CN3CCOCC3)cc2)cc(C(=O)NCc2c(C)cc(C)[nH]c2=O)c1C)C1CCOCC1` + NC1CCC(NC2CC2c2ccccc2)CC1, the IC50 reads like this: under setting [1], above 3000 nM; under setting [2], above 3000 nM; under setting [3], above 3000 nM; under setting [4], above 3000 nM; under setting [5], above 3000 nM. For the same molecule, the viability, T/C by setting is: under setting [6], 76.4%; under setting [7], 75.4%; under setting [8], 76.7%; under setting [9], 77.6%; under setting [10], 75.8%; under setting [11], 77.6%. The viability, T/C is, setting by setting: under setting [12], 74.5%; under setting [13], 83.1%; under setting [14], 70.5%; under setting [15], 74.8%; under setting [16], 80.4%; under setting [17], 75.1%. Also, the viability, T/C under setting [18] is 74.5%; the viability, T/C under setting [19] is 74.7%; the viability, T/C under setting [20] is 71.5%; the viability, T/C under setting [21] was 81%; the viability, T/C under setting [22] was 72.8%; the viability, T/C under setting [23] is 81.7%. The viability, T/C was 67.8% under setting [24]; 74.7% under setting [25]; 71.5% under setting [26]; 74% under setting [27]; 72.9% under setting [28]; 69% under setting [29]. The viability, T/C is, setting by setting: under setting [30], 72.1%; under setting [31], 68.7%; under setting [32], 76.5%; under setting [33], 70.5%; under setting [34], 66.4%; under setting [35], 74.2%.
Consider `CC1COCCN1c1cc(-c2ccnn2C)c2ccnc(-c3ccn[nH]3)c2n1` (stereo not drawn), for which the viability, T/C (compound 0.00316 µM) was 101%; the viability, T/C (compound 0.01 µM) is 103% and 83.1%; the viability, T/C (compound 0.0316 µM) is 60.4% and 48.2%; the viability, T/C (compound 0.1 µM) was 33.5% and 25.6%; the viability, T/C (compound 0.316 µM) was 18.6% and 14.7%; the viability, T/C (compound 1 µM) was 13.1% and 10.3%. Besides, the IC50 (curve of compound) is 51.4 nM and 31.1 nM.
`CC(C)c1c(-c2ccccc2)nc2c(C#N)c[nH]n2c1=O`: the viability, T/C runs as follows: (compound 0.0316 µM) 98.8% and 110%; (compound 0.1 µM) 108% and 110%; (compound 0.316 µM) 96.5% and 120%; (compound 1 µM) 92.4% and 107%; (compound 3.16 µM) 89.5% and 95.7%; (compound 10 µM) 81.7% and 80.9%. Also, the IC50 (curve of compound) was above 10000 nM.
On to `O=C(c1cc(Cc2n[nH]c(=O)c3ccccc23)ccc1F)N1CCN(C(=O)C2CC2)CC1`, for which the viability, T/C is 100% and 104% (compound 0.0316 µM); 100% and 104% (compound 0.1 µM); 107% and 96.3% (compound 0.316 µM); 87.4% and 80.7% (compound 1 µM); 64.5% and 48.9% (compound 3.16 µM); 40.4% and 31.9% (compound 10 µM). Besides, the IC50 (curve of compound) was 6260 nM and 3090 nM.
For `O=C(C=Cc1cccc(S(=O)(=O)Nc2ccccc2)c1)NO` + NC1CCC(NC2CC2c2ccccc2)CC1, the IC50 under setting [1] stood at 103 nM; the IC50 under setting [2] was determined as 101 nM; the IC50 under setting [3] was found to be 41.7 nM; the IC50 under setting [4] is 47.2 nM; the IC50 under setting [5] worked out at 10.4 nM. Further, the viability, T/C reads like this: under setting [6], 68%; under setting [7], 59.9%; under setting [8], 51.5%; under setting [9], 37.4%; under setting [10], 26.7%; under setting [11], 7.18%. Besides, the viability, T/C by setting is: under setting [12], 61.6%; under setting [13], 63.2%; under setting [14], 50.4%; under setting [15], 34.6%; under setting [16], 25.9%; under setting [17], 5.69%. In addition, the viability, T/C by setting is: under setting [18], 64.6%; under setting [19], 49.9%; under setting [20], 40.8%; under setting [21], 32.1%; under setting [22], 26%; under setting [23], 3.87%. Further, the viability, T/C reads like this: under setting [24], 65.3%; under setting [25], 53.5%; under setting [26], 40%; under setting [27], 33.8%; under setting [28], 24.7%; under setting [29], 4.61%. Moreover, the viability, T/C is, setting by setting: under setting [30], 52.7%; under setting [31], 47.2%; under setting [32], 42.2%; under setting [33], 34.4%; under setting [34], 30.8%; under setting [35], 3.5%.
In the case of `Cn1ncnc1C1c2n[nH]c(=O)c3cc(F)cc(c23)NC1c1ccc(F)cc1` (stereo not drawn) + NC1CC1c1ccc(-c2cccc(O)c2)cc1, the IC50 by setting is: under setting [1], 37.8 nM; under setting [2], 52.3 nM; under setting [3], 46.1 nM; under setting [4], 59.6 nM; under setting [5], 59.8 nM. Further, the viability, T/C by setting is: (second compound 0.1 µM, first compound 0.000316 µM) 82.2%; (second compound 0.1 µM, first compound 0.001 µM) 91%; (second compound 0.1 µM, first compound 0.00316 µM) 78.1%; (second compound 0.1 µM, first compound 0.01 µM) 76.7%; (second compound 0.1 µM, first compound 0.0316 µM) 50.8%; (second compound 0.1 µM, first compound 0.1 µM) 43.1%. Further, the viability, T/C was 88.3% (second compound 0.316 µM, first compound 0.000316 µM); 65.7% (second compound 0.316 µM, first compound 0.001 µM); 69.3% (second compound 0.316 µM, first compound 0.00316 µM); 61.9% (second compound 0.316 µM, first compound 0.01 µM); 50% (second compound 0.316 µM, first compound 0.0316 µM); 47% (second compound 0.316 µM, first compound 0.1 µM). Also, the viability, T/C (second compound 1 µM, first compound 0.000316 µM) is 70%; the viability, T/C (second compound 1 µM, first compound 0.001 µM) is 71.1%; the viability, T/C (second compound 1 µM, first compound 0.00316 µM) was 66.4%; the viability, T/C (second compound 1 µM, first compound 0.01 µM) was 62.3%; the viability, T/C (second compound 1 µM, first compound 0.0316 µM) is 53.8%; the viability, T/C (second compound 1 µM, first compound 0.1 µM) was 41.8%. The viability, T/C (second compound 3.16 µM, first compound 0.000316 µM) is 76.1%; the viability, T/C (second compound 3.16 µM, first compound 0.001 µM) is 73.1%; the viability, T/C (second compound 3.16 µM, first compound 0.00316 µM) is 63.9%; the viability, T/C (second compound 3.16 µM, first compound 0.01 µM) was 63.1%; the viability, T/C (second compound 3.16 µM, first compound 0.0316 µM) was 48.6%; the viability, T/C (second compound 3.16 µM, first compound 0.1 µM) was 49.2%. The viability, T/C reads like this: (second compound 10 µM, first compound 0.000316 µM) 64.1%; (second compound 10 µM, first compound 0.001 µM) 68%; (second compound 10 µM, first compound 0.00316 µM) 64%; (second compound 10 µM, first compound 0.01 µM) 60.4%; (second compound 10 µM, first compound 0.0316 µM) 47%; (second compound 10 µM, first compound 0.1 µM) 50%.
As to `COc1cc(C2c3cc4c(cc3C(OC3OC5COC(C)OC5C(O)C3O)C3COC(=O)C23)OCO4)cc(OC)c1O` (stereo not drawn), the viability, T/C is 97.2% and 106% (compound 0.00949 µM); 84.8% and 76% (compound 0.03 µM); 34.7% and 35.1% (compound 0.0949 µM); 20.9% and 20.7% (compound 0.3 µM); 19.2% and 17.7% (compound 0.949 µM); 8.35% and 8.98% (compound 3 µM). For the same molecule, the IC50 (curve of compound) is 67.5 nM and 63.9 nM.
